Test system: P. aeruginosa C1
Assay: P. aeruginosa lung infection mouse model
Assay type: in vivo, C57BL/6 mice
Conditions: for median lung bacteria load: 2 times per day for 3 days, n = 8, vehicle 2.51 × 10^7 CFU/g; for inhibition of lung colonization: vs vehicle

colistin sulfate
median lung bacteria load (2 mg/kg i.v.): 1.72 × 10^7 CFU/g
inhibition of lung colonization (2 mg/kg i.v.): 31%
median lung bacteria load (4 mg/kg i.v.): 0.86 × 10^7 CFU/g
inhibition of lung colonization (4 mg/kg i.v.): 65%

Source: paper PMC6936460 (Proceedings of the National Academy of Sciences of the …, 2019)
